Results on one compound are retold here after US8012717B2, “Method for the production of cladribine” (Explora Laboratories S.A., priority 2006, dated 2011).

The format of the data set is physicochemical. How it is done:
0.42 g (equal to 2.5 mMoles) of 2-chloroadenine were suspended in 50 ml of DMF and heated while being stirred. Aliquots of DMF were added until a complete hot solubilisation was obtained. 100 ml of solvent were necessary to obtain the solubilisation of the 2-chloroadenine.
A solubilisation test was also carried out of 2-chloroadenine in 25% KOH in order to increase the solubilisation. 4.05 grams of 2-chloroadenine were resuspended in KOH being stirred. Aliquots of (25% w:v) KOH were added until complete solubilisation was obtained. Even after the addition of 100 ml of 25% KOH, the 2-chloroadenine remained practically undissolved.

In the case of `Nc1nc(Cl)nc2nc[nH]c12` [2-chloroadenine], the “solubility in 25% KOH” value was “practically insoluble” and the “volume of solvent necessary to obtain the solubilisation” value came to 100 mL.
